Key:
[1] = target: T1, human JAK1 (a.a. 837-1142) (Homo sapiens, UniProt P23458); experiment: In vitro JAK kinase assay (HTRF), JAK1; assay type: biochemical; settings: 1 mM ATP
T1 construct: human JAK1 (a.a. 837-1142); His tag (N); made in house; host or cells: insect cells (baculovirus)
Procedure: Compounds herein were tested for inhibitory activity of JAK targets according to the following in vitro assay described in Park et al., Analytical Biochemistry 1999, 269, 94-104. The catalytic domains of human JAK1 (a.a. 837-1142), JAK2 (a.a. 828-1132) and JAK3 (a.a. 781-1124) with an N-terminal His tag were expressed using baculovirus in insect cells and purified. The catalytic activity of JAK1, JAK2 or JAK3 was assayed by measuring the phosphorylation of a biotinylated peptide. The phosphorylated peptide was detected by homogenous time resolved fluorescence (HTRF). […] Reactions were carried out at room temperature for 1 hour and then stopped with 20 μL 45 mM EDTA, 300 nM SA-APC, 6 nM Eu-Py20 in assay buffer (Perkin Elmer, Boston, Mass.). Binding to the Europium labeled antibody took place for 40 minutes and HTRF signal was measured on a Fusion plate reader (Perkin Elmer, Boston, Mass.).

[2] = target: T2, human JAK2 (a.a. 828-1132) (Homo sapiens, UniProt O60674); experiment: In vitro JAK kinase assay (HTRF), JAK2; assay type: biochemical; settings: IC50 ratio, selectivity for JAK1 over JAK2, 1 mM ATP
T2 construct: JAK2 (a.a. 828-1132); His tag (N); made in house; host or cells: insect cells (baculovirus)
Procedure: Compounds herein were tested for inhibitory activity of JAK targets according to the following in vitro assay described in Park et al., Analytical Biochemistry 1999, 269, 94-104. The catalytic domains of human JAK1 (a.a. 837-1142), JAK2 (a.a. 828-1132) and JAK3 (a.a. 781-1124) with an N-terminal His tag were expressed using baculovirus in insect cells and purified. The catalytic activity of JAK1, JAK2 or JAK3 was assayed by measuring the phosphorylation of a biotinylated peptide. The phosphorylated peptide was detected by homogenous time resolved fluorescence (HTRF). […] Reactions were carried out at room temperature for 1 hour and then stopped with 20 μL 45 mM EDTA, 300 nM SA-APC, 6 nM Eu-Py20 in assay buffer (Perkin Elmer, Boston, Mass.). Binding to the Europium labeled antibody took place for 40 minutes and HTRF signal was measured on a Fusion plate reader (Perkin Elmer, Boston, Mass.). See Table 2 for data for compounds of the examples as tested by the assay of Example A at 1 mM ATP.

T2 sequence (O60674 828-1132): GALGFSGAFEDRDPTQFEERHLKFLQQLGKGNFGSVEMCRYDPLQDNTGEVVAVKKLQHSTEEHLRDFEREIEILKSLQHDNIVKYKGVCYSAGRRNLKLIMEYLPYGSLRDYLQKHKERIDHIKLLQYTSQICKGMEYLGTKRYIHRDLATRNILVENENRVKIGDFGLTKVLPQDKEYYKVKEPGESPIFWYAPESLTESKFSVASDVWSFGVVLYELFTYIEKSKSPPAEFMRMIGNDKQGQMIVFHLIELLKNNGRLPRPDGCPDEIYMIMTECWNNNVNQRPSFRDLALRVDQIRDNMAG
T1 sequence (P23458 849-1154): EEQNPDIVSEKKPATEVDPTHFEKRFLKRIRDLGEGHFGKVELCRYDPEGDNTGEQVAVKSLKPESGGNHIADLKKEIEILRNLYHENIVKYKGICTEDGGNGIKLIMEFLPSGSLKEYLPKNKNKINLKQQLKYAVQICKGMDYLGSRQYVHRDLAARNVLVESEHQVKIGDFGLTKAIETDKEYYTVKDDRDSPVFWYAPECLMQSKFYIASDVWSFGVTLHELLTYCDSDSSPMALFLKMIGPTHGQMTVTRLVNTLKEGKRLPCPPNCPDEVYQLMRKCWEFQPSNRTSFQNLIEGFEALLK

| Compound | IC50 [1] | JAK2/JAK1 [2] |
| --- | --- | --- |
| N#CCC(C1CCN(c2cccc(Cl)n2)C1)n1cc(-c2ncnc3[nH]ccc23)cn1 (single isomer, unassigned) [Example 1, 3-[1-(6-chloropyridin-2-yl)pyrrolidin-3-yl]-3-[4-(7H-pyrrolo[2,3-d]pyrimidin-4-yl)-1H-pyrazol-1-yl]propanenitrile] | < 10 nM | >10 |
| N#CCC(C1CCN(c2nc3cccnc3o2)C1)n1cc(-c2ncnc3[nH]ccc23)cn1 (single isomer, unassigned) [Example 2, 3-(1-[1,3]oxazolo[5,4-b]pyridin-2-ylpyrrolidin-3-yl)-3-[4-(7H-pyrrolo[2,3-d]pyrimidin-4-yl)-1H-pyrazol-1-yl]propanenitrile] | < 10 nM | >10 |
| N#CCC(CN1CCN(C(=O)c2ccc(C#N)cc2F)CC1)n1cc(-c2ncnc3[nH]ccc23)cn1 (single isomer, unassigned) [Example 3, 4-[(4-{3-cyano-2-[4-(7H-pyrrolo[2,3-d]pyrimidin-4-yl)-1H-pyrazol-1-yl]propyl}piperazin-1-yl)carbonyl]-3-fluorobenzonitrile] | < 10 nM | >10 |
| N#CCC(CN1CCN(C(=O)c2ccc(C#N)cc2F)CC1)n1ccc(-c2ncnc3[nH]ccc23)c1 (single isomer, unassigned) [Example 4, 4-[(4-{3-cyano-2-[3-(7H-pyrrolo[2,3-d]pyrimidin-4-yl)-1H-pyrrol-1-yl]propyl}piperazin-1-yl)carbonyl]-3-fluorobenzonitrile] | < 10 nM | >10 |
| N#CCC1(n2cc(-c3ncnc4[nH]ccc34)cn2)CN(C2CCN(C(=O)c3ccnc(C(F)(F)F)c3F)CC2)C1 [Example 5, {1-{1-[3-Fluoro-2-(trifluoromethyl)isonicotinoyl]piperidin-4-yl}-3-[4-(7H-pyrrolo[2,3-d]pyrimidin-4-yl)-1H-pyrazol-1-yl]azetidin-3-yl}acetonitrile] | < 10 nM | >10 |
| N#CCC1(n2cc(-c3ncnc4[nH]ccc34)cn2)CN(C2CCN(C(=O)Nc3ccc(F)cc3C(F)(F)F)CC2)C1 [Example 6, 4-{3-(Cyanomethyl)-3-[4-(7H-pyrrolo[2,3-d]pyrimidin-4-yl)-1H-pyrazol-1-yl]azetidin-1-yl}-N-[4-fluoro-2-(trifluoromethyl)phenyl]piperidine-1-carboxamide] | < 10 nM | >10 |
| N#CCC1(n2cc(-c3ncnc4[nH]ccc34)cn2)CN(C2CCN(C(=O)c3ccnc(C(F)(F)F)n3)CC2)C1 [Example 7, [3-[4-(7H-pyrrolo[2,3-d]pyrimidin-4-yl)-1H-pyrazol-1-yl]-1-(1-{[2-(trifluoromethyl)pyrimidin-4-yl]carbonyl}piperidin-4-yl)azetidin-3-yl]acetonitrile] | < 10 nM | >10 |
| N#CC[C@]1(n2cc(-c3ncnc4[nH]ccc34)cn2)C[C@H](N2CCN(C(=O)c3ccnc(C(F)(F)F)n3)CC2)C1 [Example 8, [trans-1-[4-(7H-pyrrolo[2,3-d]pyrimidin-4-yl)-1H-pyrazol-1-yl]-3-(4-{[2-(trifluoromethyl)pyrimidin-4-yl]carbonyl}piperazin-1-yl)cyclobutyl]acetonitrile] | < 10 nM | >10 |
| N#CC[C@]1(n2cc(-c3ncnc4[nH]ccc34)cn2)C[C@H](N2CCC(Oc3cc(CN4CC(O)C4)cc(C(F)(F)F)n3)CC2)C1 [Example 9, {trans-3-(4-{[4-[(3-hydroxyazetidin-1-yl)methyl]-6-(trifluoromethyl)pyridin-2-yl]oxy}piperidin-1-yl)-1-[4-(7H-pyrrolo[2,3-d]pyrimidin-4-yl)-1H-pyrazol-1-yl]cyclobutyl}acetonitrile] | < 10 nM | >10 |
| N#CC[C@]1(n2cc(-c3ncnc4[nH]ccc34)cn2)C[C@H](N2CCC(Oc3cc(CN4CCC[C@H]4CO)cc(C(F)(F)F)n3)CC2)C1 [Example 10, {trans-3-(4-{[4-{[(2S)-2-(hydroxymethyl)pyrrolidin-1-yl]methyl}-6-(trifluoromethyl)pyridin-2-yl]oxy}piperidin-1-yl)-1-[4-(7H-pyrrolo[2,3-d]pyrimidin-4-yl)-1H-pyrazol-1-yl]cyclobutyl}acetonitrile] | < 10 nM | >10 |
| N#CC[C@]1(n2cc(-c3ncnc4[nH]ccc34)cn2)C[C@H](N2CCC(Oc3cc(CN4CCC[C@@H]4CO)cc(C(F)(F)F)n3)CC2)C1 [Example 11, {trans-3-(4-{[4-{[(2R)-2-(hydroxymethyl)pyrrolidin-1-yl]methyl}-6-(trifluoromethyl)pyridin-2-yl]oxy}piperidin-1-yl)-1-[4-(7H-pyrrolo[2,3-d]pyrimidin-4-yl)-1H-pyrazol-1-yl]cyclobutyl}acetonitrile] | < 10 nM | >10 |
| C[C@H](NC(=O)c1cc(F)c(N2CC(CC#N)(n3cc(-c4ncnc5[nH]ccc45)cn3)C2)cc1F)C(F)(F)F [Example 14, 4-{3-(Cyanomethyl)-3-[4-(7H-pyrrolo[2,3-d]pyrimidin-4-yl)-1H-pyrazol-1-yl]azetidin-1-yl}-2,5-difluoro-N-[(1S)-2,2,2-trifluoro-1-methylethyl]benzamide] | < 10 nM | >10 |
| N#CCC1(n2cc(-c3ncnc4[nH]ccc34)cn2)CN([C@H]2CC[C@@H](Oc3cc(CCO)nc(C(F)(F)F)n3)CC2)C1 [Example 16, {1-(cis-4-{[6-(2-hydroxyethyl)-2-(trifluoromethyl)pyrimidin-4-yl]oxy}cyclohexyl)-3-[4-(7H-pyrrolo[2,3-d]pyrimidin-4-yl)-1H-pyrazol-1-yl]azetidin-3-yl}acetonitrile] | < 10 nM | >10 |

Further lines, results first:

| IC50 [1] | JAK2/JAK1 [2] | Compound |
| --- | --- | --- |
| < 10 nM | >10 | CCNCc1cc(O[C@H]2CC[C@@H](N3CC(CC#N)(n4cc(-c5ncnc6[nH]ccc56)cn4)C3)CC2)nc(C(F)(F)F)c1 [Example 17, {1-(cis-4-{[4-[(ethylamino)methyl]-6-(trifluoromethyl)pyridin-2-yl]oxy}cyclohexyl)-3-[4-(7H-pyrrolo[2,3-d]pyrimidin-4-yl)-1H-pyrazol-1-yl]azetidin-3-yl}acetonitrile] |
| < 10 nM | >10 | CC(C)(O)c1cc(O[C@H]2CC[C@@H](N3CC(CC#N)(n4cc(-c5ncnc6[nH]ccc56)cn4)C3)CC2)nc(C(F)(F)F)c1 [Example 18, {1-(cis-4-{[4-(1-hydroxy-1-methylethyl)-6-(trifluoromethyl)pyridin-2-yl]oxy}cyclohexyl)-3-[4-(7H-pyrrolo[2,3-d]pyrimidin-4-yl)-1H-pyrazol-1-yl]azetidin-3-yl}acetonitrile] |
| < 10 nM | >10 | N#CCC1(n2cc(-c3ncnc4[nH]ccc34)cn2)CN([C@H]2CC[C@@H](Oc3cc(CN4CC[C@@H](O)C4)cc(C(F)(F)F)n3)CC2)C1 [Example 19, {1-(cis-4-{[4-{[(3R)-3-hydroxypyrrolidin-1-yl]methyl}-6-(trifluoromethyl)pyridin-2-yl]oxy}cyclohexyl)-3-[4-(7H-pyrrolo[2,3-d]pyrimidin-4-yl)-1H-pyrazol-1-yl]azetidin-3-yl}acetonitrile] |
| < 10 nM | >10 | N#CCC1(n2cc(-c3ncnc4[nH]ccc34)cn2)CN([C@H]2CC[C@@H](Oc3cc(CN4CC[C@H](O)C4)cc(C(F)(F)F)n3)CC2)C1 [Example 20, {1-(cis-4-{[4-{[(3S)-3-hydroxypyrrolidin-1-yl]methyl}-6-(trifluoromethyl)pyridin-2-yl]oxy}cyclohexyl)-3-[4-(7H-pyrrolo[2,3-d]pyrimidin-4-yl)-1H-pyrazol-1-yl]azetidin-3-yl}acetonitrile] |
| < 10 nM | >10 | C[C@@H](CO)NCc1cc(OC2CCN([C@H]3C[C@](CC#N)(n4cc(-c5ncnc6[nH]ccc56)cn4)C3)CC2)nc(C(F)(F)F)c1 [Example 21, {trans-3-(4-{[4-({[(1S)-2-hydroxy-1-methylethyl]amino}methyl)-6-(trifluoromethyl)pyridin-2-yl]oxy}piperidin-1-yl)-1-[4-(7H-pyrrolo[2,3-d]pyrimidin-4-yl)-1H-pyrazol-1-yl]cyclobutyl}acetonitrile] |
| < 10 nM | >10 | C[C@@H](O)CNCc1cc(OC2CCN([C@H]3C[C@](CC#N)(n4cc(-c5ncnc6[nH]ccc56)cn4)C3)CC2)nc(C(F)(F)F)c1 [Example 22, {trans-3-(4-{[4-({[(2R)-2-hydroxypropyl]amino}methyl)-6-(trifluoromethyl)pyridin-2-yl]oxy}piperidin-1-yl)-1-[4-(7H-pyrrolo[2,3-d]pyrimidin-4-yl)-1H-pyrazol-1-yl]cyclobutyl}acetonitrile] |

Source: patent US20220378791A1, “JAK1 INHIBITORS FOR THE TREATMENT OF MYELODYSPLASTIC SYNDROMES” (Incyte Corporation, priority 2014, published 2022)
